{
  "source": "paper PMC11785157",
  "about": "(bioRxiv, 2025)",
  "key": {"[1]": {"test_system": "SINV AR86", "experiment": "microbe, parasite or virus in culture", "assay_type": "cell-based, Sindbis virus", "settings": "for EC50: Sindbis virus, Huh-7, 72 h, read-out: EC50 SINV AR86"}, "[2]": {"test_system": "RRV", "experiment": "microbe, parasite or virus in culture", "assay_type": "cell-based", "settings": "Ross River virus, Vero, 72 h, read-out: EC50 RRV"}, "[3]": {"experiment": "in vitro", "settings": "human"}, "[4]": {"test_system": "alphaviruses (CHIKV, SFV, SINV-HRsp, SINV-AR86, VEEV TC83 and RRV)", "experiment": "microbe, parasite or virus in culture", "assay_type": "cell-based"}, "[5]": {"test_system": "SFV", "experiment": "microbe, parasite or virus in culture", "assay_type": "cell-based", "settings": "Semliki Forest virus, Vero, 72 h, read-out: EC50 SFV"}, "[6]": {"test_system": "RRV", "experiment": "microbe, parasite or virus in culture", "assay_type": "cell-based", "settings": "Ross River virus, Skin fibroblast, 72 h, read-out: EC50 RRV"}, "[7]": {"experiment": "in vitro", "settings": "human", "remark": "listed apart in the source"}, "[8]": {"test_system": "VEEV TC83", "experiment": "microbe, parasite or virus in culture", "assay_type": "cell-based, Venezuelan Equine Encephalitis virus", "settings": "for EC50: Venezuelan equine encephalitis virus, Huh-7, 72 h, read-out: EC50 VEEV TC83"}, "[9]": {"test_system": "CHIKV", "experiment": "CPE reduction assay, CHIKV in skin fibroblasts", "assay_type": "cell-based, chikungunya virus", "settings": "read-out: EC50 CHIKV"}, "[10]": {"test_system": "SINV HRsp", "experiment": "microbe, parasite or virus in culture", "assay_type": "cell-based, Sindbis virus", "settings": "for EC50: Sindbis virus, Huh-7, 72 h, read-out: EC50 SINV HRsp"}, "[11]": {"test_system": "alphaviruses", "experiment": "organism not typed", "assay_type": "cell-based"}, "[12]": {"test_system": "CHIKV", "experiment": "CHIKV-induced foot swelling in AG129 mice", "assay_type": "in vivo"}, "[13]": {"test_system": "CHIKV", "settings": "SOF 40-80 mg/kg/day; cited from earlier work"}, "[14]": {"test_system": "VEEV TC83", "experiment": "microbe, parasite or virus in culture", "assay_type": "cell-based", "settings": "Venezuelan equine encephalitis virus, Vero, 72 h, read-out: EC50 VEEV TC83"}, "[15]": {"test_system": "SINV HRsp", "experiment": "microbe, parasite or virus in culture", "assay_type": "cell-based", "settings": "Sindbis virus, Vero, 72 h, read-out: EC50 SINV HRsp"}, "[16]": {"test_system": "CHIKV", "experiment": "CPE reduction assay, CHIKV in Vero cells", "assay_type": "cell-based, chikungunya virus", "settings": "read-out: EC50 CHIKV"}, "[17]": {"test_system": "CHIKV", "settings": "SOF 20 mg/kg/day; cited from earlier work"}, "[18]": {"test_system": "SFV", "experiment": "microbe, parasite or virus in culture", "assay_type": "cell-based", "settings": "Semliki Forest virus, Skin fibroblast, 72 h, read-out: EC50 SFV"}, "[19]": {"experiment": "in vitro", "settings": "African green monkey"}, "[20]": {"test_system": "SINV AR86", "experiment": "microbe, parasite or virus in culture", "assay_type": "cell-based", "settings": "Sindbis virus, Vero, 72 h, read-out: EC50 SINV AR86"}, "[21]": {"settings": "mouse, in vivo"}, "[22]": {"test_system": "CHIKV", "experiment": "Viral RNA levels in CHIKV-infected AG129 mice", "assay_type": "in vivo", "settings": "day 3 pi"}, "[23]": {"test_system": "alphaviruses", "assay_type": "cell-based"}, "[24]": {"test_system": "CHIKV", "experiment": "Infectious virus titres in CHIKV-infected AG129 mice", "assay_type": "in vivo"}, "[25]": {"test_system": "Huh7 cells"}, "[26]": {"test_system": "Vero cells"}, "[27]": {"test_system": "Human skin fibroblasts"}, "[28]": {"settings": "Chikungunya virus, Skin fibroblast, 72 h"}, "[29]": {"settings": "combination study, day 2 pi, MPV 10 mg/kg, SOF 80 mg/kg or both (80 + 10 mg/kg), oral"}, "[30]": {"settings": "MPV 10, 50, 100 mg/kg, day 3 pi"}},
  "note": "Read-outs that look alike come from different tables or passages of the source.",
  "data": [
    {"smiles": "CC(C)OC(=O)[C@H](C)N[P@](=O)(OC[C@H]1O[C@@H](n2ccc(=O)[nH]c2=O)[C@](C)(F)[C@@H]1O)Oc1ccccc1", "note": "[SOF, Sofosbuvir]", "values": [
      {"measurement": "antiviral activity against SINV AR86 (in words)", "setting": "[1]", "value": "did not inhibit"},
      {"measurement": "EC50", "setting": "[1]", "value": "> 50", "unit": "µM"},
      {"measurement": "EC50", "setting": "[2]", "value": "> 100", "unit": "µM"},
      {"measurement": "CC50", "setting": "[3]", "value": "271 ± 95", "unit": "µM"},
      {"measurement": "antiviral activity", "setting": "[4]", "value": "no antiviral activity"},
      {"measurement": "EC50", "setting": "[5]", "value": "> 100", "unit": "µM"},
      {"measurement": "EC50", "setting": "[6]", "value": "20 ± 7", "unit": "µM"},
      {"measurement": "CC50", "setting": "[7]", "value": "280 ± 13", "unit": "µM"},
      {"measurement": "antiviral activity against VEEV TC83 (in words)", "setting": "[8]", "value": "did not inhibit"},
      {"measurement": "EC50", "setting": "[8]", "value": "> 50", "unit": "µM"},
      {"measurement": "EC50", "setting": "[9]; [28]", "value": "15 ± 3", "unit": "µM"},
      {"measurement": "EC50", "setting": "[10]", "value": "44 ± 3", "unit": "µM"},
      {"measurement": "EC50", "setting": "[11]; Skin fibroblast, read-out: EC50 values against all alphaviruses tested", "value": "12 to 20", "unit": "µM"},
      {"measurement": "effect on foot swelling (in words)", "setting": "[12]; SOF 40 and 80 mg/kg oral twice daily, over the course of the infection", "value": "did not significantly improve"},
      {"measurement": "reduction of foot swelling compared to vehicle", "setting": "[12]; [29]", "value": 25, "unit": "%"},
      {"measurement": "reduction of foot swelling compared to vehicle", "setting": "[12]; combination study, day 3 pi, MPV 10 mg/kg, SOF 80 mg/kg or both (80 + 10 mg/kg), oral", "value": "no reduction"},
      {"measurement": "survival", "setting": "[13]", "value": "improved survival"},
      {"measurement": "EC50", "setting": "[14]", "value": "> 100", "unit": "µM"},
      {"measurement": "EC50", "setting": "[15]", "value": "> 100", "unit": "µM"},
      {"measurement": "EC50", "setting": "[16]; Chikungunya virus, Vero, 72 h", "value": "> 100", "unit": "µM"},
      {"measurement": "foot swelling", "setting": "[17]", "value": "slightly reduced"},
      {"measurement": "reduction of viral RNA in the joint", "setting": "[17]", "value": "< 1", "unit": "log gc/ml"},
      {"measurement": "EC50", "setting": "[18]", "value": "17 ± 3", "unit": "µM"},
      {"measurement": "CC50", "setting": "[19]", "value": "350 ± 14", "unit": "µM"}
    ]},
    {"smiles": "NC(=O)c1nc(F)c[nH]c1=O", "note": "[FAV, favipiravir]", "values": [
      {"measurement": "antiviral activity against SINV AR86 (in words)", "setting": "[1]", "value": "active"},
      {"measurement": "EC50", "setting": "[1]", "value": "29 ± 18", "unit": "µM"},
      {"measurement": "EC50", "setting": "[2]", "value": "15 ± 12", "unit": "µM"},
      {"measurement": "CC50", "setting": "[3]", "value": "> 500", "unit": "µM"},
      {"measurement": "EC50", "setting": "[4]; Chikungunya virus, Vero, read-out: EC50 values against all alphaviruses tested", "value": "13 to 52", "unit": "µM"},
      {"measurement": "EC50", "setting": "[5]", "value": "33 ± 6", "unit": "µM"},
      {"measurement": "EC50", "setting": "[6]", "value": "> 200", "unit": "µM"},
      {"measurement": "CC50", "setting": "[7]", "value": "> 500", "unit": "µM"},
      {"measurement": "antiviral activity against VEEV TC83 (in words)", "setting": "[8]", "value": "active"},
      {"measurement": "EC50", "setting": "[8]", "value": 112, "unit": "µM"},
      {"measurement": "EC50", "setting": "[20]", "value": "17 ± 2", "unit": "µM"},
      {"measurement": "EC50", "setting": "[9]; [28]", "value": "143 ± 5", "unit": "µM"},
      {"measurement": "antiviral activity against SINV HRsp (in words)", "setting": "[10]", "value": "active"},
      {"measurement": "EC50", "setting": "[10]", "value": "22 ± 7", "unit": "µM"},
      {"measurement": "antiviral efficacy (in words)", "setting": "[11]", "value": "only effective against CHIKV"},
      {"measurement": "EC50", "setting": "[14]", "value": 13, "unit": "µM"},
      {"measurement": "EC50", "setting": "[15]", "value": "52 ± 18", "unit": "µM"},
      {"measurement": "EC50", "setting": "[16]; Chikungunya virus, Vero, 72 h", "value": "35 ± 14", "unit": "µM"},
      {"measurement": "EC50", "setting": "[18]", "value": 382, "unit": "µM"},
      {"measurement": "CC50", "setting": "[19]", "value": "374 ± 17", "unit": "µM"}
    ]},
    {"smiles": "CC(C)C(=O)OC[C@H]1O[C@@H](n2ccc(NO)nc2=O)[C@H](O)[C@@H]1O", "note": "[MPV, Molnupiravir]", "values": [
      {"measurement": "tolerability", "setting": "[21]", "value": "well-tolerated"},
      {"measurement": "EC50 values against all alphaviruses tested (in words)", "setting": "[11]", "value": "sub to low single-digit micromolar range"},
      {"measurement": "effect on foot swelling (in words)", "setting": "[12]; MPV 10 mg/kg oral twice daily, dose-response study", "value": "did not significantly improve swelling"},
      {"measurement": "reduction of foot swelling compared to vehicle", "setting": "[12]; MPV 50 mg/kg oral twice daily, day 2 pi", "value": 22, "unit": "%"},
      {"measurement": "reduction of foot swelling compared to vehicle", "setting": "[12]; MPV 50 mg/kg oral twice daily, day 3 pi", "value": 55, "unit": "%"},
      {"measurement": "reduction of foot swelling compared to vehicle", "setting": "[12]; MPV 100 mg/kg oral twice daily, day 2 pi", "value": 20, "unit": "%"},
      {"measurement": "reduction of foot swelling compared to vehicle", "setting": "[12]; MPV 100 mg/kg oral twice daily, day 3 pi", "value": 62, "unit": "%"},
      {"measurement": "reduction of foot swelling compared to vehicle", "setting": "[12]; [29]", "value": 19, "unit": "%"},
      {"measurement": "viral RNA in contralateral ankle (in words)", "setting": "[22]; MPV 10, 50, 100 mg/kg", "value": "dose-dependent decreases"},
      {"measurement": "viral RNA in serum (in words)", "setting": "[22]; MPV 10, 50, 100 mg/kg", "value": "significantly reduced"},
      {"measurement": "viral RNA in left ankle (in words)", "setting": "[22]; highest dose of MPV", "value": "significant decreases"},
      {"measurement": "EC50 values, pan-alphavirus (in words)", "setting": "[23]", "value": "sub to low single-digit micromolar range"},
      {"measurement": "infectious virus in contralateral ankle (in words)", "setting": "[24]; [30]", "value": "dose-dependent decreases"},
      {"measurement": "infectious virus in serum (in words)", "setting": "[24]; [30]", "value": "dose-dependent decreases"},
      {"measurement": "infectious CHIKV in serum (in words)", "setting": "[24]; MPV all doses (10, 50, 100 mg/kg), day 2 pi", "value": "suppressed infectious CHIKV"},
      {"measurement": "reduction of infectious virus titres in serum", "setting": "[24]; combination study, day 3 pi, MPV 10 mg/kg, SOF 80 mg/kg or both", "value": 1, "unit": "log10 TCID50/mL"},
      {"measurement": "infectious virus in left ankle (in words)", "setting": "[24]; highest dose of MPV, day 3 pi", "value": "significant decreases"}
    ]},
    {"smiles": "O=c1nc(NO)ccn1[C@@H]1O[C@H](CO)[C@@H](O)[C@H]1O", "note": "[EIDD-1931]", "values": [
      {"measurement": "CC50", "setting": "[25]", "value": "22 ± 11", "unit": "µM"},
      {"measurement": "EC50", "setting": "[9]; Skin fibroblasts, 72 h pi, MTS", "value": 0.9, "unit": "µM"},
      {"measurement": "CC50", "setting": "[26]", "value": "> 200", "unit": "µM"},
      {"measurement": "CC50", "setting": "[27]", "value": "140 ± 19", "unit": "µM"},
      {"measurement": "EC50", "setting": "[16]; Vero cells, 72 h pi, MTS", "value": 0.7, "unit": "µM"}
    ]}
  ]
}
